Results: patent US11992517B2, “Compositions and methods for promoting the mineralization of biological tissue” (NEW YORK SOCIETY FOR THE RUPTURED AND CRIPPLED MAINTAINING …, priority 2013, dated 2024)

Legend:
BNP cells = test: Effect of IL-1β on mineralization, Alizarin Red staining; assay type: cell-based, bovine; conditions: IL-1β 0.01 and 2 ng/ml, 7 and 10 days
Experimental: (§1) Cells from Example 2 were grown in mineralization medium in the presence or absence of a low dose of […] (0.01 ng/ml) or a high dose (2 ng/ml) (R&D Systems). Cells were analyzed by Alizarin Red staining at 7 and 10 days as previously described. RT-PCR analysis of ANK and ENPP was also performed as previously described, using primers specific for ANKH and ENPP1.

ANKH = test: RT-PCR of ANK after IL-1β treatment; assay type: cell-based, bovine; conditions: IL-1β 0.01 and 2 ng/ml; naïve cells and TNAP-infected BNP cells; day 3; FIG. 23
Experimental: as §1

ENPP1 = test: RT-PCR of ENPP after IL-1β treatment; assay type: cell-based, bovine; conditions: IL-1β 0.01 and 2 ng/ml; naïve cells and TNAP-infected BNP cells; day 3; FIG. 23
Experimental: as §1

bovine NP cells = test: Effect of TNF-α on mineralization, Alizarin Red and von Kossa staining; assay type: cell-based
Experimental: The cells from Example 2 (TNAP infected and naïve) were grown in high density cultures in a medium comprising DMEM high glucose (4.5 g/L) plus 1% PenStrep, and 10% FBS, and 50 μ/ml ascorbic acid, and 5 mM of β-glycerophosphate (mineralization medium). Some cells were also stimulated with 10 ng/mL of hfTNF-α.
The cells were stained with Alizarin Red and von Kossa stain after 7, 14, and 21 days.

Row | Substance | Alizarin Red staining of NP cells transduced with LacZ (BNP cells) | calcium staining with Alizarin Red of TNAP-infected BNP cell cultures (BNP cells; mineralization medium, FIGS. 21, 22) | ANK transcripts (ANKH) | ENPP transcripts (ENPP1) | mineralization of NP cells stimulated with TNF-α only (bovine NP cells; 10 ng/mL TNF-α, cells without TNAP) | staining of TNAP infected cells stimulated with TNF-α (bovine NP cells; 10 ng/mL TNF-α, versus unstimulated TNAP infected cells, FIG. 10) | more Alizarin Red staining than TNAP alone (bovine NP cells; TNAP overexpressing cells stimulated with TNF-α, average over three weeks, FIG. 11)
1 | IL-1β: interleukin 1β (R&D Systems) added at 0.01 or 2 ng/ml | no observable change | dose-dependent increase | dose-dependent decrease | dose-dependent decrease | – | – | –
2 | TNF-α | – | – | – | – | did not show mineralization | darker | 45%
